What was measured:
EAE mice = experiment: Experimental autoimmune encephalomyelitis (EAE), clinical score; assay type: in vivo, C57BL/6 mice; conditions: 5 mg/kg daily from day 6 post-immunization for 21 days, FIG. 8
Protocol: C57BL/6 mice were immunized with MOG35-55 and their clinical score evaluated daily. Mice were treated daily with compound (III) (10 mg/kg) on day 6 post-immunization and the 21 following days. […] Values are expressed as means±SEM for 10 animals per group.
C57BL/6 mice were immunized with MOG35-55 and their clinical score evaluated daily. Mice were treated daily with compound (XII) (5 mg/kg) on day 6 post-immunization and the 21 following days. […] Values are expressed as means±SEM for 6 animals per group.
EAE was induced in female C57BL/6 mice at 6-8 weeks of age by subcutaneous immunization with myelin oligodendrocyte glycoprotein polypeptide (MOG35-55) (300 μg) and 200 μg of Mycobacterium tuberculosis (H37Ra Difco, Franklin Lakes, N.J., USA) in a 1:1 mix with […] Freund's adjuvant (CFA, Sigma-Aldrich, Madrid, Spain). On the same day and 2 days later, mice were injected intraperitoneally (ip) with 200 ng of pertussis toxin (Sigma-Aldrich, Madrid, Spain) in 0.1 ml PBS. […] Treatment started at day 6 post-immunization (p.i.) and consisted in daily injections of compounds III (FIG. 6) and XII (FIG. 8) at the indicated doses or of the vehicle alone (DMSO/PBS) for the following 21 days. The mice were examined daily for clinical signs of EAE and disease scores were measured as follows: 0, no disease; 1, limp tail; 2, limp tail and hind limb weakness; 3, hind limb paralysis; 4, hind limb and front limb paralysis; 5, moribund and death. All animals were sacrificed 28 days (p.i.) for further analysis. Once sacrificed, animals were dissected and their spinal cords were rapidly removed and quickly frozen in RNAlater (Sigma-Aldric, Germany).

3NP-lesioned mice = experiment: Huntington's disease 3NP model, behavioral score; assay type: in vivo, C57BL/6 mice; conditions: 10 mg/kg i.p., four injections, FIG. 9
Protocol: Mice were subjected to behavioral tests for determining their neurological status after the treatment with compounds I (10 mg/kg) (A), III (10 mg/kg) (B) and XII (10 mg/kg) (C). Hind limb clasping, Locomotor activity, Hind limb dystonia and Truncal Dystonia were rated from 0 to 2 based on severity: a score of 0 typically indicates normal function and 2 seriously affected. Values are expressed as means±SEM for 8 animals per group.
(§1) Lesions of the striatum were induced with 3-NP in adult (16 week old; 30 g) male C57BL/6 mice (Harlan Ibérica, Barcelona, Spain). To this end, mice were subjected to seven intraperitoneal (i.p.) injections of 3NP (one injection each 12 hours) at a dose of 50 mg/kg (prepared in phosphate-buffered saline) for 3 days. These animals and their respective non-lesioned controls were used for pharmacological studies with compounds CBG-Q (compound I) and with compounds III and XII (FIG. 9). At least 6-8 animals were used per experimental group. Treatments consisted of four i.p. injections of the compounds at the indicated doses (one injection each 24 hours), or vehicle (DMSO 0.2%, BSA 5% in PBS) 30 min before the injections of 3NP. All animals were euthanized 12 hours after the last 3NP injection. Once euthanized, animals were dissected and their brains were rapidly removed. The right hemisphere was used to dissect the striatum, which was quickly frozen in RNAlater (Sigma-Aldrich, Germany) to analyzed inflammatory markers were by Real Time PCR. The left hemisphere was fixed in fresh 4% paraformaldehyde (in 0.1M phosphate buffered-saline) for 48 hours at 4° C. and embedded in paraffin wax for histological analysis. Mice were subjected to behavioral tests for determining their neurological status. We evaluated the general locomotor activity, the hindlimb clasping and dystonia, and the truncal dystonia. All behavioral tests were conducted prior to drug injections to avoid acute effects of the compounds under investigation.

[1] = tested on: striatal neurons, astrocytes and microglia; experiment: 3NP model, immunohistochemistry of striatum (NeuN, GFAP, Iba-1); assay type: in vivo, C57BL/6 mice; conditions: 3NP-lesioned mice, 10 mg/kg
Protocol: NeuN (neuronal marker), GFAP (astrocytes marker), and Ibal (microglia marker) were detected by immunostaining in the coronal sections of striatum of mice treated with vehicle, 3NP+ vehicle, 3NP+compoundXII (10 mg/kg) and XII (10 mg/kg). Quantification of NeuN (A), GFAP (B) and Ibal (C) positive cells in the mouse striatum. Total average number of neurons, astrocytes and microglia is shown. Values are expressed as means±SEM for 6 animals per group.
as §1, with “investigation. […]” for “investigation.”

N2a cells = experiment: Neuroprotection assay, glutamate-induced excitotoxicity in N2a cells; assay type: cell-based; conditions: 1 h pre-incubation, then 5 mM glutamate 24 h, FIG. 5
Protocol: N2a cells were pre-incubated for 1 h with compounds (II) to (V) and (XII) at the indicated concentrations. Then, cells were treated for 24 h with 5 mM glutamate to induce excitotoxicity, or cytotoxicity in neuronal cells induced by neurotransmitters. Cell viability was quantified by MTT assay. […] Control was set as 100% and data were referred to that value.
Cultured N2A cells were pre-incubated with the compounds II, III, IV, V and XII at the indicated concentrations for 1 h and then treated with 5 mM glutamate to induce excitotoxicity during 24 h (FIG. 5). Cytotoxicity was determined by the MTT method as described in example 3. Results are shown as mean±S.D. from at least three independent experiments, and expressed as percentage of cell viability against the control sample (−). Control was set as 100% and data were referred to that value.

[2] = tested on: COX-2, iNOS, TNFα and IL-6; experiment: 3NP model, inflammatory marker mRNAs in the striatum (real-time PCR); assay type: in vivo, C57BL/6 mice; conditions: 3NP-treated mice, 10 mg/kg, FIG. 10 and FIG. 11
Protocol: Gene expression of inflammatory markers including COX-2, TNFα, IL-6 and iNOS, was down regulated in 3NP+compound III (10 mg/kg) treated mice compared with 3NP+Vehicle mice. Expression levels were calculated using the 2^−ΔΔct method. Values are expressed as means±SEM for 6 animals per group.
Gene expression of inflammatory markers including COX-2, TNFα, IL-6 and iNOS, was down regulated in 3NP+XII (10 mg/kg) treated mice compared with 3NP+Vehicle mice. Expression levels were calculated using the 2^−ΔΔct method. Values are expressed as means±SEM for 6 animals per group.
Lesions of the striatum were induced with 3-NP in adult (16 week old; 30 g) male C57BL/6 mice (Harlan Ibérica, Barcelona, Spain). […] The right hemisphere was used to dissect the striatum, which was quickly frozen in RNAlater (Sigma-Aldrich, Germany) to analyzed inflammatory markers were by Real Time PCR. […] We evaluated the general locomotor activity, the hindlimb clasping and dystonia, and the truncal dystonia. […]
Total RNA was isolated from striata (3NP model) or spinal cord (EAE model) using RNeasy Lipid Tissue Mini Kit (Qiagen, GmbH). The total amount of RNA extracted was quantitated by spectrometry at 260 nm and its purity from the ratio between the absorbance values at 260 and 280 nm. […] Expression levels were calculated using the 2^−ΔΔct method.

PPARg [3] = experiment: PPARg transactivation assay in HEK-293 cells (GAL4-PPARγ / GAL4-luc); conditions: for increase of PPARg activity: 1 μM concentration; for PPARg activation (fold) compared with CBG-Q: HEK-293 cells, 6 h treatment, FIG. 1; for PPARg transactivation (luciferase activity, fold induction over untreated cells): increasing doses, 6 h
PPARg [4] = experiment: PPARg transactivation assay in human dermal primary fibroblasts; assay type: cell-based; conditions: 6 h treatment, FIG. 2
Description: FIG. 2. PPARg Transactivation Assays in Human Dermal Primary Fibroblasts.

[5] = text refers to FIG. 1 and FIG. 2

| SMILES | protection from glutamate-induced cytotoxicity (cell viability, MTT) (N2a cells) | PPARg activation (fold) compared with CBG-Q (PPARg [3]) | PPARg activation (fold) compared with CBG-Q (PPARg [4]) | further results |
| --- | --- | --- | --- | --- |
| CCCCCC1=C(C2=C(CCCCC)C(=O)C(O)=C(C/C=C(\C)CCC=C(C)C)C2=O)C(=O)C(C/C=C(\C)CCC=C(C)C)=C(O)C1=O [Compound XII, 3,3′-bis((E)-3,7-dimethylocta-2,6-dienyl)-4,4′-dihydroxy-6,6′-dipentyl-1,1′-bi(cyclohexa-3,6-diene)-2,2′,5,5′-tetraone] | protect neuronal cells from glutamate-induced apoptosis | – | – | clinical symptoms in EAE mice (EAE mice): alleviated the clinical symptoms in EAE mice to the same extent than compound III; clinical symptoms induced by 3-NP intoxication (hind limb clasping, locomotor activity, hind limb dystonia, truncal dystonia) (3NP-lesioned mice): clearly alleviates such symptomatology; striatal neurons, NeuN staining ([1]; FIG. 12A): preservation of striatal neurons; GFAP+ cells (astrocytes) in striatum ([1]; FIG. 12B): counteracted the lost of GFAP^+ cells; reactive microgliosis (Iba-1+ cells) in striatum ([1]; FIG. 12C): prevented the induction of reactive microgliosis; up-regulation of pro-inflammatory markers COX-2, iNOS, TNFα and IL-6 in the striatum [2]: attenuated the up-regulation |
| CN(CCOc1ccc(CC2SC(=O)NC2=O)cc1)c1ccccn1 (centres unmarked) [Rosiglitazone, reference compound] | – | – | – | increase of PPARg activity (PPARg [3]; [5]): more than 100 times |
| CCCCCC1=C(NC(C)C)C(=O)C(C/C=C(\C)CCC=C(C)C)=C(O)C1=O [Compound VIII, 6-(3,7-imethyl-octa-2,6-dienyl)-5-hydroxy-3-pentyl-2-isopropylamino-[1,4]benzoquinone] | – | higher efficiency than CBG-Q | – | – |
| CCCCCC1=C(C(=O)OC)C(=O)C(C/C=C(\C)CCC=C(C)C)=C(O)C1=O [Compound II, 6-(3,7-dimethyl-octa-2,6-dienyl)-5-hydroxy-3-pentyl-2-metoxycarbonil-[1,4]benzoquinone] | protect neuronal cells from glutamate-induced apoptosis | higher efficiency than CBG-Q | higher efficiency than CBG-Q | increase of PPARg activity (PPARg [3]; [5]): ≤ 12 times; potency to activate PPARg compared with CBG-Q (PPARg [3]; concentrations of 1 to 25 μM, text refers to FIG. 1 and FIG. 2): significantly more potent than compound CBG-Q |
| CCCCCNC1=C(CCCCC)C(=O)C(O)=C(C/C=C(\C)CCC=C(C)C)C1=O [Compound IV, 6-(3,7-dimethyl-octa-2,6-dienyl)-5-hydroxy-3-pentyl-2-pentylamino-[1,4]benzoquinone] | protect neuronal cells from glutamate-induced apoptosis | higher efficiency than CBG-Q | higher efficiency than CBG-Q | PPARg transactivation (luciferase activity, fold induction over untreated cells) (PPARg [3]; [5]): most active compounds |
| CCCCCC1=C(NCC(C)C)C(=O)C(C/C=C(\C)CCC=C(C)C)=C(O)C1=O [Compound V, 6-(3,7-dimethyl-octa-2,6-dienyl)-5-hydroxy-3-pentyl-2-isobutylamino [1,4]benzoquinone] | protect neuronal cells from glutamate-induced apoptosis | higher efficiency than CBG-Q | higher efficiency than CBG-Q | PPARg transactivation (luciferase activity, fold induction over untreated cells) (PPARg [3]; [5]): most active compounds |
| CCCCCC1=C(NC)C(=O)C(C/C=C(\C)CCC=C(C)C)=C(O)C1=O [Compound VII, 6-(3,7-dimethyl-octa-2,6-dienyl)-5-hydroxy-3-pentyl-2-methylamino-[1,4]benzoquinone] | – | higher efficiency than CBG-Q | – | – |
